Assay results as given in patent US20080208071A1, “Measurement of Gastric Acid Secretion” (THE LEEDS TEACHING HOSPITALS NHS TRUST, priority 2005, published 2008).

Columns and labels:
gastric acid secretion [1] = test: 13C calcium carbonate breath test, Example 1 (250 mg every 15 minutes over 4 hours); settings: human volunteer; oral 250 mg calcium carbonate (10 atom % 13C) every 15 minutes over 4 hours; two experiments; FIG. 1
Experimental: At 10 minute intervals, samples of exhaled (expired) air were obtained from the subject by breathing into a suitable collection vessel such as a test tube. The expired air was subjected to mass spectrometry to measure the ratio of ^13C to ^12C in the exhaled carbon dioxide.
In a second experiment the subject was treated with omeprazole 20 mg daily for two weeks and the experiment repeated twice under otherwise identical conditions.
The subject then did two further experiments again under otherwise identical conditions but now including a daily dosage of 40 mg of omeprazole.

gastric acid secretion [2] = test: 13C calcium carbonate breath test, Example 2 (initial 2 g, then 500 mg every 5 minutes over 3 hours); settings: human volunteer; oral 2 g then 500 mg calcium carbonate (10 atom % 13C) every 5 minutes over 3 hours; two experiments; FIG. 4

`O=C([O-])[O-].[Ca+2]` [^13C labelled calcium carbonate, calcium carbonate] was tested, and the “time at which the rise in 13C in exhaled carbon dioxide begins to plateau” value (gastric acid secretion [1]) was “about 120 minutes” and the “time at which the rise in 13C in exhaled carbon dioxide begins to plateau” value (gastric acid secretion [2]) was “about 120 minutes”.
